The text below walks through data of patent publication US8895744B2, “Alfa-carboline inhibitors of NPM-ALK, RET, and Bcr-Abl” (Universita' Degli Studi di Milano-Bicocca, priority 2008, dated 2014).

For experiment [1], the system named is parent untransformed BaF3 cells. Briefly: Tritiated thymidine uptake cell proliferation assay, parental BaF3 (control). The format is cell-based. The settings on record: Mus musculus, 3[H]-thymidine uptake, 72 h, medium with IL-3, read-out: BaF parental IC50. The essentials:
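Control lines were parental BaF3 in IL-3-supplemented medium and ALK-, Abl- or RET-negative U937, seeded at 10 000 cells/well with serial inhibitor dilutions for 72 h at 37 °C. ³H-thymidine (1 μCi/well) was added for the final 16 h; IC50 (μM) is the concentration halving uptake versus DMSO.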

Experiment [2] concerns the target T1, BaF3 cells transformed with the oncogenic fusion protein NPM/ALK (Homo sapiens, UniProt Q9UM73).
T1 construct: fused on or other part: P06748 (Nucleophosmin)
Description: Tritiated thymidine uptake cell proliferation assay, BaF3 NPM/ALK. The format is cell-based. The settings on record: 3[H]-thymidine uptake, 72 h; read-out: BaF NPM/ALK IC50. The method, boiled down: (§1)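 Cells were seeded at 10 000/well with serial inhibitor dilutions or DMSO vehicle and incubated 72 h at 37 °C, with ^3[H]-thymidine (1 μCi/well) added for the final 16 h. Incorporation was read by β scintillation counting. IC50 (μM) is the concentration giving a 50% decrease in uptake versus controls.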

Experiment [3] has as its target BaF3 cells transformed with the oncogenic fusion protein bcr-abl (Homo sapiens, UniProt P00519). Description: Tritiated thymidine uptake cell proliferation assay, BaF3 BCR/ABL. To be noted: 3[H]-thymidine uptake, 72 h; read-out: BaF BCR/ABL IC50. The experiment is classed as cell-based. The method, then: (§2) Inhibition of the Proliferation of Bcr/Abl Positive Cells
(§3) Method: Tritiated Thymidine Uptake Cell Proliferation Assay
(§4) The following procedure was used with parent untransformed BaF3 cells, BaF3 cells transformed with the oncogenic fusion protein bcr-abl, Abl-negative U937 cells, or Bcr-abl positive LAMA-84 cells. The parent untransformed BaF3 cells and Abl-negative U937 cells are used as controls. Cells were seeded in U-bottomed 96-well plates at 10 000 cells/well in a volume of 100 μL in supplemented medium. In the case of the parent untransformed BaF3 cells, the medium was supplemented with IL-3. Serial dilutions of inhibitors were added to the appropriate wells and volumes adjusted to 200 μL. Controls were treated with the equivalent volume of vehicle, DMSO, alone. Plates were incubated at 37° C. for 72 h. ^3[H]-thymidine (1 μCi/well) was added for the last 16 h of incubation. Cells were harvested on to paper filters and ^3[H]-thymidine incorporation was measured using a β scintillation counter (1430 MicroBeta, Wallac, Turku, Finland). The 50% inhibitory concentration (IC50) was defined as the concentration of inhibitor, expressed in micromolar, that gave a 50% decrease in ^3H-thymidine uptake compared with controls.

Experiment [4] has as its target T2, Recombinant Abl T315I protein (Homo sapiens, UniProt P00519, T315I).
T2 construct: made in house; host or cells: Sf9 cells (baculovirus)
Briefly: Abl T315I mutant kinase inhibitory activity, ELISA-based in vitro kinase assay. The settings on record: purified Abl T315I, 0.3 mM ATP. The experiment is classed as biochemical. The method, boiled down:
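His-tagged human Abl T315I from Sf9 cells, preincubated 10 min at room temperature with inhibitor, then reacted on peptide-coated plates with 0.3 mM ATP, 1 mM MnCl2, 5 mM MgCl2 in 50 mM Tris pH 7.5. Phosphotyrosine detected by anti-pTyr/HRP ELISA at 450 nm; IC50 as 50% inhibition vs control.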
(In an ELISA, binding on a coated surface is turned into a signal by an enzyme label.)

The next experiment concerns the target T3, Recombinant Ret protein (Homo sapiens, UniProt P07949).
T3 construct: made in house; host or cells: Sf9 cells (baculovirus)
Briefly: RET kinase inhibitory activity, ELISA-based in vitro kinase assay. The format is biochemical. The settings on record: purified Ret, 0.3 mM ATP. The method, then: Recombinant ALK kinase was expressed in Sf9 insect cells using the pBlueBacHis2C baculovirus vector system and purified using an anion exchange Fast Flow Q-sepharose column (Amersham-Pharmacia Biotech) followed by HiTrap™-nickel affinity column (Amersham-Pharmacia Biotech). Purified ALK protein was used to screen inhibitors in the ELISA-based kinase assay. A Nunc Immuno 96 well plate was incubated overnight at 37° C. with coating solution (125 μL/well) containing ALK peptide substrate ([…]) (SEQ ID NO: 1) at various concentrations in PBS. Wells were then washed with 200 μL of wash buffer (PBS-Tween 0.05%) and left to dry for at least 2 h at 37° C. The kinase reaction was performed in the presence of 50 mM Tris pH 7.5, 5 mM MnCl2, 5 mM MgCl2, 0.3 mM ATP and purified rALK in a total volume of 100 μL/well at 30° C. for 15 min. For inhibitor testing the reaction mix was preincubated with the inhibitor or solvent control for 10 min at room temperature before transferring to the ELISA plate. After the reaction wells were washed 5 times with 200 μL of wash buffer. Phosphorylated peptide was detected using 100 μL/well of a mouse monoclonal anti-phosphotyrosine antibody (clone 4G10 Upstate Biotech Ltd) diluted 1:2000 in PBS+4% BSA. After 30 min incubation at room temperature the antibody was removed and wells were washed as described above. 100 μL of a secondary antibody (anti-mouse IgG, Horseradish Peroxidase linked whole antibody, Amersham Pharmacia Biotech) diluted 1:1000 in PBS+4% BSA was added to each well and the plate was incubated again for 30 min at room temperature before washing as above. The plate was developed using 100 μL/well TMB Substrate Solution (Endogen) and the reaction was stopped by adding an equiv.ual volume of H2SO4 0.36 M. Finally, the absorbance was read at 450 nm using an Ultrospec® 300 spectrophotometer (Amersham-Pharmacia Biotech). The concentration of the test solution showing 50% inhibition as compared with the control was expressed as IC50 (μM).
38. RET Kinase Inhibitory Activity
Method: ELISA-Based In Vitro Kinase Assay
Recombinant Ret protein was expressed in Sf9 cells using the pBlueBacHis2C baculovirus expression vector. Ret was purified using an anion exchange Fast Flow Q-sepharose column (Amersham-Pharmacia Biotech) followed by HiTrap™-nickel affinity column (Amersham-Pharmacia Biotech). Purified Ret was used in the ELISA-based kinase assay to screen inhibitors as described above. The kinase reaction was performed in the presence of 50 mM Tris pH 7.5, 1 mM MnCl2, 5 mM MgCl2, 0.3 mM ATP, peptide substrate ([…]) (SEQ ID NO: 1) and purified Ret. The concentration of the test solution showing 50% inhibition as compared with the control was expressed as IC50 (μM).

Experiment [5] has as its system NPM/ALK positive SUDHL-1 cells. Description: Tritiated thymidine uptake cell proliferation assay, SUDHL-1. The format is cell-based. The settings on record: 3[H]-thymidine uptake, 72 h. The method, boiled down: as §1
A further experiment addresses T4, Recombinant ALK kinase (Homo sapiens, UniProt Q9UM73).
T4 construct: made in house; host or cells: Sf9 insect cells (baculovirus)
Briefly: ALK kinase inhibitory activity, ELISA-based in vitro kinase assay. The experiment is classed as biochemical. The settings on record: purified rALK, 0.3 mM ATP, read-out: ALK IC50. The method, boiled down: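 Sf9-expressed, purified recombinant ALK phosphorylated a plate-coated peptide substrate with 0.3 mM ATP, Mn2+/Mg2+, pH 7.5, 15 min at 30° C, after 10 min inhibitor preincubation. Phosphotyrosine was detected by anti-pTyr ELISA (TMB, A450); IC50 in μM is the concentration giving 50% inhibition relative to control.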

Experiment [6] concerns Bcr-abl positive LAMA-84 cells. Briefly: Tritiated thymidine uptake cell proliferation assay, LAMA-84. The format is cell-based. To be noted: Homo sapiens, 3[H]-thymidine uptake, 72 h. The method, then: as §2, §3, §4
The next experiment concerns ALK-negative U937 cells. Description: Tritiated thymidine uptake cell proliferation assay, U937 (control). The format is cell-based. The settings on record: Homo sapiens, U-937; 3[H]-thymidine uptake, 72 h. On the procedure: as §3
The following procedure was used with parent untransformed BaF3 cells, BaF3 cells transformed with the oncogenic fusion protein NPM/ALK, NPM/ALK positive SUDHL-1 cells, ALK-negative U937 cells, NPM/ALK positive KARPAS-299 cells. The parent untransformed BaF3 cells and Alk-negative U937 cells are used as controls. Cells were seeded in U-bottomed 96-well plates at 10 000 cells/well in a volume of 100 μL in supplemented medium. In the case of the parent untransformed BaF3 cells, the medium was supplemented with IL-3. Serial dilutions of inhibitors were added to the appropriate wells and volumes adjusted to 200 μL. Controls were treated with the equivalent volume of vehicle, DMSO, alone. Plates were incubated at 37° C. for 72 h. ^3[H]-thymidine (1 μCi/well) was added for the last 16 h of incubation. Cells were harvested on to paper filters and ^3[H]-thymidine incorporation was measured using a β scintillation counter (1430 MicroBeta, Wallac, Turku, Finland). The 50% inhibitory concentration (IC50) was defined as the concentration of inhibitor, expressed in micromolar, that gave a 50% decrease in ^3[H]-thymidine uptake compared with controls. […]
as §4, with “RET-PTC2,” for “bcr-abl, Abl-negative U937 cells,”, “RET-negative 11937” for “Bcr-abl positive LAMA-84”, “RET-negative” for “Abl-negative”, “^3[H]-thymidine” for “^3H-thymidine”

What is called IC50 is the midpoint of a concentration-inhibition curve.

A value given as a limit tells only on which side of the number the result lay.

T4 sequence (Q9UM73 19-1620): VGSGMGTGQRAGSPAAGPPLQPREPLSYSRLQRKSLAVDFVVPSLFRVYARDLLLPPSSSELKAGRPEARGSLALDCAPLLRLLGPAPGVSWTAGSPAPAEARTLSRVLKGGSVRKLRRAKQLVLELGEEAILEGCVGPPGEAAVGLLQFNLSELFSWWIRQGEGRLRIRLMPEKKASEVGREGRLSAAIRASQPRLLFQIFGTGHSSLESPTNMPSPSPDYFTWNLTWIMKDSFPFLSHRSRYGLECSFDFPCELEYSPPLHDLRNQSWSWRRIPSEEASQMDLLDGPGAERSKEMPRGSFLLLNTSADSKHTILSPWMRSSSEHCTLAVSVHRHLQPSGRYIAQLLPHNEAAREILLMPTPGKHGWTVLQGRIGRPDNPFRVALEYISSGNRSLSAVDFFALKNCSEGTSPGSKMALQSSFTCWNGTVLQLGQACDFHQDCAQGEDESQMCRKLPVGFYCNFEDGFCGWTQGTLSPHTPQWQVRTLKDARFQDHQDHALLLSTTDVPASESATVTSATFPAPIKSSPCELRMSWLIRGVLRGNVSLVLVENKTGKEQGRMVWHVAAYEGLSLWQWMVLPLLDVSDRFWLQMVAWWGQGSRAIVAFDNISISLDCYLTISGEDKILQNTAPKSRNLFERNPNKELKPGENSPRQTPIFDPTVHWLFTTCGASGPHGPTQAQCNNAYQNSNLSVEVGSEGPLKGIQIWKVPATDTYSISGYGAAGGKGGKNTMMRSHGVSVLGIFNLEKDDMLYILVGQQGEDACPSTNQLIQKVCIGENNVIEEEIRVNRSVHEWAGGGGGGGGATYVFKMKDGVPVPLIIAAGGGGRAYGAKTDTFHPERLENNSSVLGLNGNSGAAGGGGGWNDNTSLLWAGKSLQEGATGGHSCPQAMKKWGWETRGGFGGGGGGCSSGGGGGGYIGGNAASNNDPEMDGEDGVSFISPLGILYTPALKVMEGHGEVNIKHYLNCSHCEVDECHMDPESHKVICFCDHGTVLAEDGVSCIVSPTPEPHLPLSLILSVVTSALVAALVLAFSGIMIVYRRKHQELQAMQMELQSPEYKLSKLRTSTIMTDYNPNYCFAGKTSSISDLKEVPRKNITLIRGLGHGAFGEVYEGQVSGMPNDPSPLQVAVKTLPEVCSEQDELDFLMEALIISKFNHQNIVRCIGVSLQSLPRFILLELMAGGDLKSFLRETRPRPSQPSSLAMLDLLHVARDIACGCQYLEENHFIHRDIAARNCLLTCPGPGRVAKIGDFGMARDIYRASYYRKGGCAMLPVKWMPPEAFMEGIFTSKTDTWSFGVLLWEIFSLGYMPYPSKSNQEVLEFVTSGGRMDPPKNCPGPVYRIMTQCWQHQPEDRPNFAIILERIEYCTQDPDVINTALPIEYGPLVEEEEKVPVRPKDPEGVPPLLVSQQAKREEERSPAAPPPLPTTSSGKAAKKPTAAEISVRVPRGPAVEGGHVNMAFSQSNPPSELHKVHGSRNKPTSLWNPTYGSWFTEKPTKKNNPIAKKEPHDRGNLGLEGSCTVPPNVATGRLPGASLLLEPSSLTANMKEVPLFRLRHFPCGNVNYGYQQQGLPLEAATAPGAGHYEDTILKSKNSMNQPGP
T3 sequence (P07949 29-1114): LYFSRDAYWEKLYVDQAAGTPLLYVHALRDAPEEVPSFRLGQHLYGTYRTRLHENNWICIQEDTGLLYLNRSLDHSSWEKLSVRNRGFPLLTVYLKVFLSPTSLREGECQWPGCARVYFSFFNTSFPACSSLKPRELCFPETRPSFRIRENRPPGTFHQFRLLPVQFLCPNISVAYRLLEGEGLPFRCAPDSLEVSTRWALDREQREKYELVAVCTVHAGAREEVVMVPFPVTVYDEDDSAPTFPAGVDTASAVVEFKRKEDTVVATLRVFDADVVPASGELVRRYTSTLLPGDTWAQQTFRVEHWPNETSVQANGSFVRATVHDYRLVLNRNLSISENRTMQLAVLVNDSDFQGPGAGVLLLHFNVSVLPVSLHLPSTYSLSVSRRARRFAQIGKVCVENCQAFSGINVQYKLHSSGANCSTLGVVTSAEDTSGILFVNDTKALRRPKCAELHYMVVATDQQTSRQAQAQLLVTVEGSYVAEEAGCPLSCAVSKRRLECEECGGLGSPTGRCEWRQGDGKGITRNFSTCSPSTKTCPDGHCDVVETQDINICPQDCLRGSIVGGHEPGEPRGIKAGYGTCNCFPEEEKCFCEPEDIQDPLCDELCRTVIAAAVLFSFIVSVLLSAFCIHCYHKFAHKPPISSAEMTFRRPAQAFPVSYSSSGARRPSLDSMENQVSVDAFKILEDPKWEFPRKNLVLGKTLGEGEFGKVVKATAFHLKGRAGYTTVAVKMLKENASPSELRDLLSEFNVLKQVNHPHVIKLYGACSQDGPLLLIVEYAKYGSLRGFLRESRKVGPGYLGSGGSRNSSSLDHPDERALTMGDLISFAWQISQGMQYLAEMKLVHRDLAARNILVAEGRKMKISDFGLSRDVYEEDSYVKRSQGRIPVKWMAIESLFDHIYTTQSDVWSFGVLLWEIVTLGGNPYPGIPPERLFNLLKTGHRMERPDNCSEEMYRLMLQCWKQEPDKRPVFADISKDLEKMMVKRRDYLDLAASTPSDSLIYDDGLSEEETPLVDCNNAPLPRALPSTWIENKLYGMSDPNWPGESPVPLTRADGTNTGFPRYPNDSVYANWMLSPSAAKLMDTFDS
T1 sequence (Q9UM73 whole entry, change not shown, the tested form may be a part): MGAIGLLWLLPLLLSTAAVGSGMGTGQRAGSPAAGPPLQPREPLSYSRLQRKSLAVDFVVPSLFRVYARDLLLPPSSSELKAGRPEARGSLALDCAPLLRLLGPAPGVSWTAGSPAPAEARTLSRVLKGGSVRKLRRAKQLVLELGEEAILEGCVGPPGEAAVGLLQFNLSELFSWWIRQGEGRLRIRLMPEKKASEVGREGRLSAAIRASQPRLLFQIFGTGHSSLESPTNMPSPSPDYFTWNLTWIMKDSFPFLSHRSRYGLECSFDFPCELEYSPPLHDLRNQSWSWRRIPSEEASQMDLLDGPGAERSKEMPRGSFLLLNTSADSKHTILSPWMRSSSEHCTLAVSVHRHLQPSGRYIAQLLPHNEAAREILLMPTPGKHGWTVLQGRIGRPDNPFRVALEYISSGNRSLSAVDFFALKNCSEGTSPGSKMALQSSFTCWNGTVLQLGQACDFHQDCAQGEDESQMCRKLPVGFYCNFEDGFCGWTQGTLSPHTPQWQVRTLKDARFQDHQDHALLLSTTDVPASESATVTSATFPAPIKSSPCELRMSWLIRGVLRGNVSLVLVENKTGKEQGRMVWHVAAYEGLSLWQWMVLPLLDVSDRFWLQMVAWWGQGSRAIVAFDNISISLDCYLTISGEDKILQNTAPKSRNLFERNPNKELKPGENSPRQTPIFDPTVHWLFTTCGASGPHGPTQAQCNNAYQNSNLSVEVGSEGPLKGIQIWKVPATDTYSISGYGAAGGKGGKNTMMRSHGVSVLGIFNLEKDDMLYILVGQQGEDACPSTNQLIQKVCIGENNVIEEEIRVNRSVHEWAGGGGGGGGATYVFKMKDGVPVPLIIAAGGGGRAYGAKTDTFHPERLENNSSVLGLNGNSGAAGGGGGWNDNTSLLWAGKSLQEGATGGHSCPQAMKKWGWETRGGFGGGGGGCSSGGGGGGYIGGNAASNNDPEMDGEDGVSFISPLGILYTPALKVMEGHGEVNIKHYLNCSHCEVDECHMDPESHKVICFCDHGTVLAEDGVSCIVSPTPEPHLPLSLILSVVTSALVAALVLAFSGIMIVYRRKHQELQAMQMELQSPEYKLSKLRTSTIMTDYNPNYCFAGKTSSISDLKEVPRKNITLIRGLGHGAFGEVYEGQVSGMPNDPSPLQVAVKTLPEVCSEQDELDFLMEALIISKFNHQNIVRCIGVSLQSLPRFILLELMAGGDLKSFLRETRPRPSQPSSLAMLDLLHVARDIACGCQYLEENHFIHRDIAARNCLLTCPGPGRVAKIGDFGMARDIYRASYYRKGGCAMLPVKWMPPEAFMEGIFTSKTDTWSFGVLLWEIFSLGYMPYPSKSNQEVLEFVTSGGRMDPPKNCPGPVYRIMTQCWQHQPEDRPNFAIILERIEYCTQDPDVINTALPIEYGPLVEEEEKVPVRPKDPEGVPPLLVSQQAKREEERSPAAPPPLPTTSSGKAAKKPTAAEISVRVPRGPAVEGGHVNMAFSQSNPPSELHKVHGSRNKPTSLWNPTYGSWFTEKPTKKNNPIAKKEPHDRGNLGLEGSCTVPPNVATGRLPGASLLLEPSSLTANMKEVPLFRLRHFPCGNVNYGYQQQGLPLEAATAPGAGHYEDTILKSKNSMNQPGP

For `CC(=O)c1ccc2[nH]c3ncc(Cl)cc3c2c1` [R253, 6-acetyl-3-chloro-9H-pyrido[2,3-b]indole], the IC50 in experiment [1] was greater than 20 µM. For the same molecule, the GI50 in [2] and in experiment [3] was greater than 20 µM throughout.

Turning to `CN(C)CCSCC(=O)c1ccc2[nH]c3ncccc3c2c1` [R263], the IC50 in experiment [4] is greater than 100 µM; in [1], greater than 25 µM; at Recombinant Ret protein, greater than 100 µM; in experiment [5] it was 13 µM; at Recombinant ALK kinase, greater than 100 µM. For the same molecule, the GI50 in experiment [2] and in [3] was greater than 25 µM throughout.

In the case of `O=C(CSc1ccccn1)c1ccc2[nH]c3ncccc3c2c1` [R264], the IC50 in [4] was determined as 49 ± 1.1 µM; in experiment [1] it was 19 µM; at Recombinant Ret protein it was 24 ± 6.1 µM; in experiment [5], 24 µM; on Recombinant ALK kinase, 13 ± 0.58 µM. Further, the values for the GI50 in [2] and in [3] were 13 µM and 23 µM, respectively.

In the case of `O=C(NCCc1ccc2[nH]c3ncc(Cl)cc3c2c1)c1ccccc1` [R265, N-(2-(3-chloro-9H-pyrido[2,3-b]indol-6-yl)ethyl)benzamide], the IC50 in [4] is 54 ± 43 µM; in experiment [1] it was greater than 25 µM; at Recombinant Ret protein it was 26 ± 4.7 µM; in experiment [5], greater than 25 µM; at Recombinant ALK kinase it was 40 ± 1.9 µM. Further, the GI50 in experiment [2] and in experiment [3] was greater than 25 µM in each case.

As for `O=[N+]([O-])/C=C/c1ccc2[nH]c3ncc(Cl)cc3c2c1` [R266, 3-chloro-6-(2′-nitrovinyl)-9H-pyrido[2,3-b]indole], the IC50 came out at 9.8 ± 0.67 µM in [4]; 3.4 µM in experiment [1]; 4.6 ± 0.39 µM on Recombinant Ret protein; 0.81 µM in experiment [5]; 3.3 ± 0.4 µM on Recombinant ALK kinase. Also, the GI50 came to 3.4 µM in [2] and 2 µM in experiment [3].

Take `COc1ccc(-c2ccc3[nH]c4ncccc4c3c2)cc1` [R268]: the IC50 in experiment [4] was 3.6 ± 0.19 µM; in experiment [1] it was greater than 25 µM; at Recombinant Ret protein, 3.3 ± 1.5 µM; in experiment [5], 0.6 µM. Also, the GI50 in experiment [2] and in experiment [3] was greater than 25 µM throughout.

Consider `COc1ccc(CNC(=O)CCC(=O)c2ccc3[nH]c4ncc(Cl)cc4c3c2)cc1` [R304, 4-(3-Chloro-9H-pyrido[2,3-b]indol-6-yl)-N-(4-methoxybenzyl)-4-oxobutyramide], for which the IC50 in [4] turned out to be 5 µM; in [1] it was 19 ± 7 µM; in experiment [5], 8.4 µM; in experiment [6] it was 1.6 µM. Moreover, the GI50 in [2] stood at 2.6 ± 1 µM.

Turning to `O=C(CSc1ccccc1)c1ccc2[nH]c3nc(Cl)ccc3c2c1` [R306, 1-(2-Chloro-9H-pyrido[2,3-b]indol-6-yl)-2-phenylsulfanylethanone], the IC50 was 3.5 ± 0.03 µM in experiment [4]; 25 ± 3 µM in experiment [1]; 1.3 µM on Recombinant Ret protein; 5.7 µM in [5]; 1.4 µM in [6]; 0.8 ± 0.3 µM at Recombinant ALK kinase. For the same molecule, the GI50 in [2] amounted to 7.3 ± 0.3 µM.

Consider `COc1ccc(-c2ccc3[nH]c4nc(-c5ccc(OC)cc5)ccc4c3c2)cc1` [R311, 2,6-di(4-methoxyphenyl)-9H-pyrido[2,3-b]indole], for which the IC50 in experiment [4] was 8.3 µM; in experiment [1], greater than 100 µM; in [5], 32 µM; in [6] it was 55 µM. The GI50 in experiment [2] turned out to be 15 ± 3 µM.

As to `C(=C\c1cnc2[nH]c3ccc(-c4ccc(CN5CCOCC5)cc4)cc3c2c1)/c1ccccc1` [R314, 6-(4-(morpholin-4-yl)methylphenyl)-3-(2′-phenylethenyl)-9H-pyrido[2,3-b]indole], the IC50 was greater than 50 µM in [4], 2.1 µM in [5] and 2.1 µM in experiment [6]. Besides, in [2], the GI50 is 1.6 ± 0.1 µM.

With `COc1ccc(-c2ccc3[nH]c4ncc(/C=C/c5ccccc5)cc4c3c2)cc1` [R315, 6-(4-methoxyphenyl)-3-(2′-phenylethenyl)-9H-pyrido[2,3-b]indole], the IC50 turned out to be 6.5 µM in experiment [4]; 25 ± 10 µM in [1]; 2 µM in experiment [5]; 1.1 ± 0.3 µM on Recombinant ALK kinase; 21 µM in the experiment on ALK-negative U937 cells. Further, the GI50 in experiment [2] is 3.9 ± 1.1 µM.
